Here are results for 30 molecules from US11292796B2 (SIGNAL PHARMACEUTICALS, LLC, priority 2008, dated 2022).

As usually defined, the IC50 is the concentration that inhibits the measured activity by half.

The target of this experiment is T1, mTOR (Homo sapiens, UniProt P42345).
T1 construct: purchased Invitrogen PR8683A
T1 sequence (P42345 1360-2549 limits assumed): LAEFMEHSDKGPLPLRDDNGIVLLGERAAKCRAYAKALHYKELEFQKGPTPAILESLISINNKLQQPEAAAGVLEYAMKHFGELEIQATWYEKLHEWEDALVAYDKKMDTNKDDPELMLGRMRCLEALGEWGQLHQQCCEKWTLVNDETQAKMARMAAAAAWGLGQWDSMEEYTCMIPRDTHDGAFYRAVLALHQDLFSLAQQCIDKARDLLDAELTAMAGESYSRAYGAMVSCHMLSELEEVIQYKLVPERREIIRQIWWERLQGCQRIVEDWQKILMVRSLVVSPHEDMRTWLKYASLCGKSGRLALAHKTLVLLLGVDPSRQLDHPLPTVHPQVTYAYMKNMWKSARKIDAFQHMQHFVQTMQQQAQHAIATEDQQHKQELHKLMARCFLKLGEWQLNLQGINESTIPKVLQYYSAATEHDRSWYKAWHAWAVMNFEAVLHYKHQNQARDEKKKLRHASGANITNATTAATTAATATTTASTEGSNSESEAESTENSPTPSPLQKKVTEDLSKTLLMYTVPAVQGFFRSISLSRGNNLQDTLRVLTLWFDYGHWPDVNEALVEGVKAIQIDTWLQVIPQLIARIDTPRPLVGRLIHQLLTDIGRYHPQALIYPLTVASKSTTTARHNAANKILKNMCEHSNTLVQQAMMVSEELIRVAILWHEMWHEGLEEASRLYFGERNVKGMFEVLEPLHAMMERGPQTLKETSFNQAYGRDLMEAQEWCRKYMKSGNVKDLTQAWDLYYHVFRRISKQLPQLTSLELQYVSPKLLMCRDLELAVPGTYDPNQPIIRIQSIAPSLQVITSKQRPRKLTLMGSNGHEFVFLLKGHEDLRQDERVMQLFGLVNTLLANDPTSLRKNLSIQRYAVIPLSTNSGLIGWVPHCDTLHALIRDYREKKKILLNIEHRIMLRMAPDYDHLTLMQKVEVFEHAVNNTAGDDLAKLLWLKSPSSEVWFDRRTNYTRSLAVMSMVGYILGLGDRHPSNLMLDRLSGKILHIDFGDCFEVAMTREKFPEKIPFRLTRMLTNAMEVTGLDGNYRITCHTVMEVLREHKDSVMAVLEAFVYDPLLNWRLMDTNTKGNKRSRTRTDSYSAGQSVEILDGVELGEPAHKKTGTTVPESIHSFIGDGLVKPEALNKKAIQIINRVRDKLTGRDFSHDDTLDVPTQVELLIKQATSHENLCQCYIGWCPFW
As to the kind of experiment: mTOR HTR-FRET assay. The experiment is classed as biochemical. The conditions noted are these: read-out: Act. Level (IC50 in mTor HTR-FRET assay). The protocol: The following is an example of an assay that can be used to determine the mTOR inhibitory activity of a test compound. Heteroaryl Compounds were dissolved in DMSO and prepared as 10 mM stocks and diluted appropriately for the experiments. Reagents were prepared as follows:
“Simple TOR buffer” (used to dilute high glycerol TOR fraction): 10 mM Tris pH 7.4, 100 mM NaCl, 0.1% Tween-20, 1 mM DTT. Invitrogen mTOR (cat #PR8683A) was diluted in this buffer to an assay concentration of 0.200 μg/mL.
To 20 μL of the Simple mTor buffer is added 0.5 μL of test compound in DMSO. To initiate the reaction 5 μL of ATP/Substrate solution was added to 20 μL of the Simple TOR buffer solution (control) and to the compound solution prepared above.
As for `CO[C@H]1C[C@@H]2C(=O)Nc3ncc(-c4ccc(-c5nnc[nH]5)cc4C)nc3N2C1` [Example 112, 8-(4-(4H-1,2,4-triazol-3-yl)-2-methylphenyl)(2S,3aR)-2-methoxy-5,10,3a-trihydropyrazino[2,3-b]pyrrolidino[1,2-e]pyrazin-4-one], the IC50 was 0.005 to 250 nM. On to `CO[C@@H]1CC[C@H](CN2CC(=O)Nc3ncc(-c4ccc(C(C)(C)O)nc4)nc32)C1` [Example 58, 6-(6-(2-hydroxypropan-2-yl)pyridin-3-yl)-4-(((1S,3R)-3-methoxycyclopentyl)methyl)-3,4-dihydropyrazino[2,3-b]pyrazin-2(1H)-one], for which the IC50 was in the range of 0.005 to 250 nM. With `CO[C@H]1CC[C@H](N2CC(=O)Nc3ncc(-c4ccc(-c5nnc[nH]5)nc4C)nc32)C1` [Example 41, 4-((1S,3S)-3-methoxycyclopentyl)-6-(2-methyl-6-(4H-1,2,4-triazol-3-yl)pyridin-3-yl)-3,4-dihydropyrazino[2,3-b]pyrazin-2(1H)-one], the IC50 fell in the range of 0.005 to 250 nM. With `COCCN1C(=O)CNc2ncc(-c3ccc4cn[nH]c4c3)nc21` [Example 189, 7-(1H-indazol-6-yl)-1-(2-methoxyethyl)-3,4-dihydropyrazino[2,3-b]pyrazin-2(1H)-one], the IC50 was 1000 to 10000 nM. Turning to `C[C@H]1Nc2ncc(-c3ccc(C(C)(C)O)nc3)nc2N(CCC2CCOCC2)C1=O` [Example 266, (R)-7-(6-(2-hydroxypropan-2-yl)pyridin-3-yl)-3-methyl-1-(2-(tetrahydro-2H-pyran-4-yl)ethyl)-3,4-dihydropyrazino[2,3-b]pyrazin-2(1H)-one], the IC50 was 500 to 1000 nM. Turning to `O=C1CN(CCC2CCOCC2)c2nc(-c3cccc(-c4ncn[nH]4)c3)cnc2N1` [Example 31, 6-(3-(1H-1,2,4-triazol-5-yl)phenyl)-4-(2-(tetrahydro-2H-pyran-4-yl)ethyl)-3,4-dihydropyrazino[2,3-b]pyrazin-2(1H)-one], the IC50 lay within 1000 to 10000 nM. On to `CCN1C(=O)CNc2ncc(-c3ccc(-c4nc[nH]n4)nc3)nc21` [Example 164, 7-(6-(1H-1,2,4-triazol-3-yl)pyridin-3-yl)-1-ethyl-3,4-dihydropyrazino[2,3-b]pyrazin-2(1H)-one], for which the IC50 is 0.005 to 250 nM. Consider `COCCN1CC(=O)Nc2ncc(-c3cnc(-c4nc[nH]n4)cc3C)nc21` [Example 30, 4-(2-methoxyethyl)-6-(4-methyl-6-(1H-1,2,4-triazol-3-yl)pyridin-3-yl)-3,4-dihydropyrazino[2,3-b]pyrazin-2(1H)-one], for which the IC50 is 0.005 to 250 nM. Take `Cc1cc(-c2nc[nH]n2)c(F)cc1-c1cnc2c(n1)N(C1CCOCC1)CC(=O)N2` [Example 24, 6-(5-fluoro-2-methyl-4-(1H-1,2,4-triazol-3-yl)phenyl)-4-(tetrahydro-2H-pyran-4-yl)-3,4-dihydropyrazino[2,3-b]pyrazin-2(1H)-one]: the IC50 is 0.005 to 250 nM. The value for `CNc1nc2c(C)cc(-c3cnc4c(n3)N(CCC3CCOCC3)CC(=O)N4)cc2[nH]1` [Example 139, 6-(4-methyl-2-(methylamino)-1H-benzo[d]imidazol-6-yl)-4-(2-(tetrahydro-2H-pyran-4-yl)ethyl)-3,4-dihydropyrazino[2,3-b]pyrazin-2(1H)-one] was 0.005 to 250 nM.

With `COCCN1CC(=O)Nc2ncc(-c3ccc(-c4nnc[nH]4)c(F)c3)nc21` [Example 59, 6-(3-fluoro-4-(4H-1,2,4-triazol-3-yl)phenyl)-4-(2-methoxyethyl)-3,4-dihydropyrazino[2,3-b]pyrazin-2(1H)-one], the IC50 fell in the range of 0.005 to 250 nM. For `COCCN1C(=O)CNc2ncc(-c3ccc(-c4nnc[nH]4)c(F)c3)nc21` [Example 242, 7-(3-fluoro-4-(4H-1,2,4-triazol-3-yl)phenyl)-1-(2-methoxyethyl)-3,4-dihydropyrazino[2,3-b]pyrazin-2(1H)-one] the value was 0.005 to 250 nM; for `Cc1c(-c2cnc3c(n2)N(CCC2CCOCC2)C(=O)CN3)ccc(-c2nc[nH]n2)c1F` [Example 248, 7-(3-fluoro-2-methyl-4-(1H-1,2,4-triazol-3-yl)phenyl)-1-(2-(tetrahydro-2H-pyran-4-yl)ethyl)-3,4-dihydropyrazino[2,3-b]pyrazin-2(1H)-one], 0.005 to 250 nM. For the molecule `Cc1nc(-c2nnc[nH]2)ccc1-c1cnc2c(n1)N(C)C(=O)CN2` [Example 197, 1-methyl-7-(2-methyl-6-(4H-1,2,4-triazol-3-yl)pyridin-3-yl)-3,4-dihydropyrazino[2,3-b]pyrazin-2(1H)-one], the IC50 was in the range of 0.005 to 250 nM. `CC(C)(O)c1ccc(-c2cnc3c(n2)N(CC2CC2)CC(=O)N3)cn1` [Example 63, 4-(cyclopropylmethyl)-6-(6-(2-hydroxypropan-2-yl)pyridin-3-yl)-3,4-dihydropyrazino[2,3-b]pyrazin-2(1H)-one]: the IC50 was 250 to 500 nM. Consider `CO[C@H]1CC[C@H](N2C(=O)CNc3ncc(-c4ccc(-c5nnc[nH]5)nc4C)nc32)C1` [Example 229, 1-((1S,3S)-3-methoxycyclopentyl)-7-(2-methyl-6-(4H-1,2,4-triazol-3-yl)pyridin-3-yl)-3,4-dihydropyrazino[2,3-b]pyrazin-2(1H)-one], for which the IC50 was 0.005 to 250 nM. The value for `CC(C)(O)c1ccc(-c2cnc3c(n2)N([C@H]2CCOC2)CC(=O)N3)cn1` [Example 130, (S)-6-(6-(2-hydroxypropan-2-yl)pyridin-3-yl)-4-(tetrahydrofuran-3-yl)-3,4-dihydropyrazino[2,3-b]pyrazin-2(1H)-one] was 500 to 1000 nM; that for `Cc1cc(-c2nc[nH]n2)c(F)cc1-c1cnc2c(n1)N(C1CCOCC1)C(=O)CN2` [Example 166, 7-(5-fluoro-2-methyl-4-(1H-1,2,4-triazol-3-yl)phenyl)-1-(tetrahydro-2H-pyran-4-yl)-3,4-dihydropyrazino[2,3-b]pyrazin-2(1H)-one] was 0.005 to 250 nM.

In the case of `O=C1CNc2ncc(-c3cnc4nc[nH]c4c3)nc2N1CCC1CCOCC1` [Example 218, 7-(1H-imidazo[4,5-b]pyridin-6-yl)-1-(2-(tetrahydro-2H-pyran-4-yl)ethyl)-3,4-dihydropyrazino[2,3-b]pyrazin-2(1H)-one], the IC50 was 1000 to 10000 nM.

Turning to `CO[C@H]1CC[C@@H](N2C(=O)CNc3ncc(-c4ccc(-c5nc[nH]n5)nc4)nc32)CC1` [Example 151, 7-(6-(1H-1,2,4-triazol-3-yl)pyridin-3-yl)-1-(cis-4-methoxycyclohexyl)-3,4-dihydropyrazino[2,3-b]pyrazin-2(1H)-one], the IC50 was in the range of 0.005 to 250 nM. For the molecule `Cc1cc(-c2cnc3c(n2)N(CC2CCOCC2)C(=O)CN3)cc2[nH]c(=O)[nH]c12` [Example 238, 7-(7-methyl-2-oxo-2,3-dihydro-1H-benzo[d]imidazol-5-yl)-1-((tetrahydro-2H-pyran-4-yl)methyl)-3,4-dihydropyrazino[2,3-b]pyrazin-2(1H)-one], the IC50 fell in the range of 500 to 1000 nM. For `CO[C@H]1CC[C@H](N2CC(=O)Nc3ncc(-c4ccc(C(C)(C)O)cc4)nc32)CC1` [Example 86, 6-(4-(2-hydroxypropan-2-yl)phenyl)-4-(trans-4-methoxycyclohexyl)-3,4-dihydropyrazino[2,3-b]pyrazin-2(1H)-one], the IC50 fell in the range of 0.005 to 250 nM.

For `CO[C@@H]1CC[C@H](CN2CC(=O)Nc3ncc(-c4ccc(-c5nnc[nH]5)nc4C)nc32)C1` [Example 47, 4-(((1S,3R)-3-methoxycyclopentyl)methyl)-6-(2-methyl-6-(4H-1,2,4-triazol-3-yl)pyridin-3-yl)-3,4-dihydropyrazino[2,3-b]pyrazin-2(1H)-one], the IC50 was 0.005 to 250 nM. Take `O=C1CNc2ncc(-c3ccc(-c4nc[nH]n4)nc3)nc2N1[C@H]1CC[C@H](O)CC1` [Example 170, 7-(6-(1H-1,2,4-triazol-3-yl)pyridin-3-yl)-1-(trans-4-hydroxycyclohexyl)-3,4-dihydropyrazino[2,3-b]pyrazin-2(1H)-one]: the IC50 fell in the range of 0.005 to 250 nM. In the case of `Cc1cc(-c2cnc3c(n2)N(CC2CCOCC2)C(=O)CN3)cc2[nH]c(N)nc12` [Example 264, 7-(2-amino-4-methyl-1H-benzo[d]imidazol-6-yl)-1-((tetrahydro-2H-pyran-4-yl)methyl)-3,4-dihydropyrazino[2,3-b]pyrazin-2(1H)-one], the IC50 lay within 0.005 to 250 nM. With `NC(=O)c1cccc(-c2cnc3c(n2)N(CCC2CCOCC2)CC(=O)N3)c1` [Example 33, 3-(6-oxo-8-(2-(tetrahydro-2H-pyran-4-yl)ethyl)-5,6,7,8-tetrahydropyrazino[2,3-b]pyrazin-2-yl)benzamide], the IC50 lay in the range of 500 to 1000 nM. The value for `O=C1CNc2ncc(-c3ccc(-c4nc[nH]n4)nc3)nc2N1C1CCOCC1` [Example 162, 7-(6-(1H-1,2,4-triazol-3-yl)pyridin-3-yl)-1-(tetrahydro-2H-pyran-4-yl)-3,4-dihydropyrazino[2,3-b]pyrazin-2(1H)-one] was 0.005 to 250 nM; that for `O=C1CNc2ncc(-c3ccc(O)nc3)nc2N1CCC1CCOCC1` [Example 185, 7-(6-hydroxypyridin-3-yl)-1-(2-(tetrahydro-2H-pyran-4-yl)ethyl)-3,4-dihydropyrazino[2,3-b]pyrazin-2(1H)-one] was 1000 to 10000 nM. On to `Cc1cc(-c2nnc[nH]2)ccc1-c1cnc2c(n1)NC(C)(C)C(=O)N2` [Example 79, 3,3-dimethyl-6-(2-methyl-4-(4H-1,2,4-triazol-3-yl)phenyl)-3,4-dihydropyrazino[2,3-b]pyrazin-2(1H)-one], for which the IC50 lay within 250 to 500 nM. As to `Cc1cc(-c2nnc[nH]2)ccc1-c1cnc2c(n1)N(CC1CCOCC1)C(C)(C)C(=O)N2` [Example 76, 3,3-dimethyl-6-(2-methyl-4-(4H-1,2,4-triazol-3-yl)phenyl)-4-((tetrahydro-2H-pyran-4-yl)methyl)-3,4-dihydropyrazino[2,3-b]pyrazin-2(1H)-one], the IC50 was in the range of 0.005 to 250 nM.
